Results: article PMC7159882, “Polyunsaturated fatty acid analogues differentially affect cardiac NaV, CaV, and KV channels through unique mechanisms” (eLife, 2020)

Legend:
Type in all cases: cell-based
Cav1.2/β3/α2δ = target: T1, Cav1.2/β3/α2δ (Homo sapiens, UniProt Q13936); assay: Two-electrode voltage clamp of Cav1.2/β3/α2δ expressed in Xenopus oocytes (Ba2+ as charge carrier); conditions: for ICa I/I0: relative current at 0 mV
T1 construct: expressed in transfected cells; host or cells: Xenopus laevis oocytes (cRNA injection, Cav1.2:β3:α2δ 2:1:1 by weight)
Description: (§1) Molecular Biology cRNA encoding Kv7.1 (UniProt: P51787), KCNE1 (UniProt: P15382.1), Nav1.5 (UniProt: Q14524.1), Nav β1 (UniProt: […]), Nav β3 (UniProt: […]), Cav1.2 (GenBank: CAA84346), Cav β3 (Uniprot: P54286), Cav β2 (Uniprot: P54288), and Cav α2δ (Uniprot: P13806) were transcribed using the mMessage mMachine T7 kit (Ambion). 50 ng of cRNA was injected into defolliculated Xenopus laevis oocytes (Ecocyte, Austin, TX): For Kv7.1/KCNE1 channel expression, we injected a 3:1, weight:weight (Kv7.1:KCNE1) cRNA ratio. For Nav1.5 channel expression, we injected a 2:1, weight:weight (Nav1.5:β1) cRNA ratio. For Cav1.2 channel expression, we injected a 2:1:1, weight:weight (Cav1.2:β3:α2δ) cRNA ratio. The exact stoichiometry for channel macromolecular complexes, including α -subunits and auxiliary subunits is not clear for many ion channels. For example, there have been multiple reported stoichiometries for Kv7.1:KCNE1 determined in heterologous expression systems with some groups reporting flexible stoichiometry of 4 Kv7.1: 1–4 KCNE1 and others reporting a fixed stoichiometry of 4 Kv7.1: 2 KCNE1 ([Murray et al., 2016]; [Nakajo et al., 2010]). The ratios of cRNA of α- and auxiliary subunits that we injected in Xenopus laevis oocytes are such that all α-subunits are assumed to be in complex with auxiliary subunits. This allows a more homogenous population of ion channels with auxiliary subunits. One caveat to expressing ion channels as macromolecular complexes is that there are many other auxiliary subunits that could associate with the channel α -subunit that are present in cardiomyocytes and have the potential to alter PUFA-induced effects, but that are not being co-expressed in our experiments. In this work, we are co-expressing some of the auxiliary subunits that have been primarily reported to associate with their respective α -subunits in cardiomyocytes. Following cRNA injection, cells were incubated for 72–96 hr in standard ND96 solution (96 mM NaCl, 2 mM KCl, 1 mM MgCl2, 1.8 mM CaCl2, 5 mM HEPES; pH = 7.5) containing 1 mM pyruvate at 16°C prior to electrophysiological recordings.
(§2) Xenopus laevis oocytes were recorded in the two-electrode voltage clamp (TEVC) configuration. Recording pipettes were filled with 3 M KCl. The recording chamber was filled with ND96 (96 mM NaCl, 2 mM KCl, 1 mM MgCl2, 1.8 mM CaCl2, 5 mM HEPES; pH 7.5). For Cav1.2/β3/α2δ channel recordings, Xenopus oocytes were injected with 50 nl of 100 mM EGTA and incubated at 10°C for 30 min prior to electrophysiological recordings in order to sequester cytosolic calcium. In addition, Cav1.2/β3/α2δ channel recordings were done in Ca^2+-free solutions, using Ba^2+ as the charge carrier, to prevent calcium-dependent inactivation of Cav1.2/β3/α2δ channels. Calcium-dependent inactivation was not studied in this work, due to the presence of large calcium-activated chloride currents present in Xenopus laevis oocytes. PUFAs were obtained from Cayman Chemical (Ann Arbor, MI.) or synthesized in house (Linköping, Sweden) through methods previously described ([Bohannon et al., 2020]) and kept at −20 °C as 100 mM stock solutions in ethanol. Serial dilutions of the different PUFAs were prepared from stocks to make 0.2 μM, 0.7 μM, 2 μM, 7 μM, and 20 μM concentrations in ND96 solutions (pH = 7.5). PUFAs were perfused into the recording chamber using the Rainin Dynamax Peristaltic Pump (Model RP-1) (Rainin Instrument Co., Oakland, CA. USA).
(§3) Electrophysiological recordings were obtained using Clampex 10.3 software (Axon, pClamp, Molecular Devices). To measure Kv7.1/KCNE1 currents we apply PUFAs as the membrane potential is stepped every 30 s from −80 mV to 0 mV for 5 s before stepping to −40 mV and back to −80 mV to ensure that the PUFA effects on the current at 0 mV reached steady state. A voltage-step protocol was used to measure the current vs. voltage (I-V) relationship before PUFA application and after the PUFA effects had reached steady state for each concentration of PUFA. […]

Kv7.1/KCNE1 = target: T2, Kv7.1/KCNE1 (Homo sapiens, UniProt P51787); assay: Two-electrode voltage clamp of Kv7.1/KCNE1 expressed in Xenopus oocytes; design: Fitted slope factor of conductance vs voltage relationship: unit of the concentration uncertain; conditions: for IKs I/I0: relative current at 0 mV
T2 construct: cRNA encoding Kv7.1 (UniProt: P51787), KCNE1 (UniProt: P15382.1); expressed in transfected cells; host or cells: Xenopus laevis oocytes (cRNA injection, Kv7.1:KCNE1 3:1 by weight)
Description: as §1
as §2, with “Serial dilutions of the different PUFAs were prepared from stocks to make 0.2 μM, 0.7 μM, 2 μM, 7 μM, and 20 μM concentrations in ND96 solutions (pH = 7.5).” left out
as §3, with “PUFA. Cells were held at −80 mV followed by a hyperpolarizing prepulse to −140 mV.” for “PUFA.”

Nav1.5/β1 = target: T3, Nav1.5/β1 (Homo sapiens, UniProt Q14524); assay: Two-electrode voltage clamp of Nav1.5/β1 expressed in Xenopus oocytes; conditions: for INa I/I0: relative current at 0 mV
T3 construct: Nav1.5 (UniProt: Q14524.1); expressed in transfected cells; host or cells: Xenopus laevis oocytes (cRNA injection, Nav1.5:β1 2:1 by weight)
Description: as §1, §2, §3

T1 sequence (Q13936 1-2138 isoform Q13936-20): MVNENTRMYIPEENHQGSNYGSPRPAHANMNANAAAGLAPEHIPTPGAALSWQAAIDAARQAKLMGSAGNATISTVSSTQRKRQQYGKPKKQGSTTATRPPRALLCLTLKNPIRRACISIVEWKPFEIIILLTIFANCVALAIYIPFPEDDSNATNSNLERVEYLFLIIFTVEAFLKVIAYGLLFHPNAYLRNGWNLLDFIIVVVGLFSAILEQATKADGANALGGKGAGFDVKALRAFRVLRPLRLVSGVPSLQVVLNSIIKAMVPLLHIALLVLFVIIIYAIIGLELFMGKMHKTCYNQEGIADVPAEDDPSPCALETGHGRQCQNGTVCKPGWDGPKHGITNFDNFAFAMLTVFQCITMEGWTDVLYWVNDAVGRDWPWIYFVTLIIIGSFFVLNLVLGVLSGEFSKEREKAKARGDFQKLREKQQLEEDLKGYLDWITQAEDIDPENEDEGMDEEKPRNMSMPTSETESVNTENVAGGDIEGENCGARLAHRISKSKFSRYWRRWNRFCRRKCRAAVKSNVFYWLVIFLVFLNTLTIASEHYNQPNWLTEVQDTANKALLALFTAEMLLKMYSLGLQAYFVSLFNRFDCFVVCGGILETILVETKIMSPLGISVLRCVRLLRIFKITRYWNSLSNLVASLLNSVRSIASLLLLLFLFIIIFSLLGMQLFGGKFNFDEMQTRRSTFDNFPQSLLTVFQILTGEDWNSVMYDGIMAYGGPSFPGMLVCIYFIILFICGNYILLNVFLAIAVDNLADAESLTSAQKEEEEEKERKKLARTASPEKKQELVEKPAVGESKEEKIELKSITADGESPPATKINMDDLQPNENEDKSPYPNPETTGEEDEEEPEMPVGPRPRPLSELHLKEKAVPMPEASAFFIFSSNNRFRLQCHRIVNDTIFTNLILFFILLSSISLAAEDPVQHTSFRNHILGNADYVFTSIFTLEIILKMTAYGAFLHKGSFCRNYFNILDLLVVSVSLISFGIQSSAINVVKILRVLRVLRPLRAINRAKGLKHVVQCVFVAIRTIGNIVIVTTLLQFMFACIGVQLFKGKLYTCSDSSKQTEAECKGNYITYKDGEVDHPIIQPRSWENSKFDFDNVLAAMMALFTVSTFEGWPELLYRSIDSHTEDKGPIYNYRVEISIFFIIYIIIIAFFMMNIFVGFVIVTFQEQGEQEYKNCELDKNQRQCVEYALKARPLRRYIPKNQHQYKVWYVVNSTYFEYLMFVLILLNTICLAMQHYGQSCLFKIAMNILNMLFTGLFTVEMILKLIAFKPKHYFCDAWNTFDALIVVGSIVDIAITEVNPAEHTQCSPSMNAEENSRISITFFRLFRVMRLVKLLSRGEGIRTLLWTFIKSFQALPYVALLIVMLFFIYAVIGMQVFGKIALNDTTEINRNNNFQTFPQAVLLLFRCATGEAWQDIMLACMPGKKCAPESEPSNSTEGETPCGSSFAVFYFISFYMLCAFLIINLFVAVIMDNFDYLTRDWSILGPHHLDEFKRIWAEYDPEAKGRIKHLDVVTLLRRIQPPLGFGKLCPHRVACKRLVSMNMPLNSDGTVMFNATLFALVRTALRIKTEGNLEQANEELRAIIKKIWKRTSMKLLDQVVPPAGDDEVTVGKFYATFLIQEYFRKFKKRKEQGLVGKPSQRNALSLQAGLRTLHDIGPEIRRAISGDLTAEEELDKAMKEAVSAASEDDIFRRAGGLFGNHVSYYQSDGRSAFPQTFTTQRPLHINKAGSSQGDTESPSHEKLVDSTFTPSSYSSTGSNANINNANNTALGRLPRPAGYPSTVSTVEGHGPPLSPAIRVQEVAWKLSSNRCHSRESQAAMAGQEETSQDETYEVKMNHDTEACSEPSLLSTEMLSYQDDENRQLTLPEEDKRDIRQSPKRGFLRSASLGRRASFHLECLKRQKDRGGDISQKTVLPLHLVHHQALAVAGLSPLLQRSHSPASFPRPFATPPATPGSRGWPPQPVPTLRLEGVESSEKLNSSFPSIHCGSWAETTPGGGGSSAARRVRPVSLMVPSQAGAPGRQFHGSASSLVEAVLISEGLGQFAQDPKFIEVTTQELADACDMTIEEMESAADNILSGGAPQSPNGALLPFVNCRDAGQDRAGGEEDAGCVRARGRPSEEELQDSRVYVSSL
T1 sequence (P54286 whole entry partner): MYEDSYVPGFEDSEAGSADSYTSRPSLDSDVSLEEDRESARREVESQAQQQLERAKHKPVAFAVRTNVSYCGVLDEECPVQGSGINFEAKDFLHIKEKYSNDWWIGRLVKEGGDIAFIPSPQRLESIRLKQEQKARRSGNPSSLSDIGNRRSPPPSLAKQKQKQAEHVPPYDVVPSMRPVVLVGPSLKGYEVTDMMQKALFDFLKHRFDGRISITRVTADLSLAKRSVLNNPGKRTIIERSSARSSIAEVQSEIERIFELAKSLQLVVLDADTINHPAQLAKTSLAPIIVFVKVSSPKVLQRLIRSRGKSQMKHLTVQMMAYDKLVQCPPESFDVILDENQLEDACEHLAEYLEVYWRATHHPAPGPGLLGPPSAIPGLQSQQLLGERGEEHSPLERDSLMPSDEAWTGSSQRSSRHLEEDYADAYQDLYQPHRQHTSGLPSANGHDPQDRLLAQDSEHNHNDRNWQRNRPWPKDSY
T1 sequence (P13806 27-960 partner): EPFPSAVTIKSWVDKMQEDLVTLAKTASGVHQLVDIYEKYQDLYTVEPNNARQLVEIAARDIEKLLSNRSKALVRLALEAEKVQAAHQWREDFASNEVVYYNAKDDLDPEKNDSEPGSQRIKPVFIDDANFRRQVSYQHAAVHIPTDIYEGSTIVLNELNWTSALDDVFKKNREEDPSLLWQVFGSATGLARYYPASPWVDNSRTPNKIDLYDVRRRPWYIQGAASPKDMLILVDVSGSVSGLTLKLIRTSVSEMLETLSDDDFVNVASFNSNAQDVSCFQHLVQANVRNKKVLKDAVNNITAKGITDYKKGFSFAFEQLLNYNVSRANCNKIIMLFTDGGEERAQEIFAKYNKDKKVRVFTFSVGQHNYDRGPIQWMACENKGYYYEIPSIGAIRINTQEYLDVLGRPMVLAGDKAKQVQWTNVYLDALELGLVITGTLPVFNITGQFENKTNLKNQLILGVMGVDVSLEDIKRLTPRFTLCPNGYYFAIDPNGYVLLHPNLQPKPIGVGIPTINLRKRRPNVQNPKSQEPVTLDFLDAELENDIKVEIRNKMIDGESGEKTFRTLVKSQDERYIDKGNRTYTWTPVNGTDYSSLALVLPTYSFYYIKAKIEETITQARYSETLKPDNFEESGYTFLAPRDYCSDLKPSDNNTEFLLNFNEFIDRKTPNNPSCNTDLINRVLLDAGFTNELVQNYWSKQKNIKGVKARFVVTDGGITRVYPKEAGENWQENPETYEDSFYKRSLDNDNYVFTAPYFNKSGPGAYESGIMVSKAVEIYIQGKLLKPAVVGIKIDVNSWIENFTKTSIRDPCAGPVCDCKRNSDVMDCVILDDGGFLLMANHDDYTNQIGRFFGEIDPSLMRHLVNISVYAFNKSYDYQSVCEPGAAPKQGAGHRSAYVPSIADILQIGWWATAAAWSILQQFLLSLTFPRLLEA
T1 sequence (P13806 961-1106 partner): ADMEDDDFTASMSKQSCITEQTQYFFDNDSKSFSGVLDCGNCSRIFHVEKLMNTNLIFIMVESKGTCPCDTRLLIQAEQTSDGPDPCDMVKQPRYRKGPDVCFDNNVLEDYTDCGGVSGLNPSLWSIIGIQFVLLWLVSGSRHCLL

Q: For `CC/C=C\C/C=C\C/C=C\C/C=C\C/C=C\C/C=C\CCC(=O)NCCS(=O)(=O)O` [DHA-taurine], which Gmax/Gmax0 (Cav1.2/β3/α2δ; 0.2 μM) is on record?
A: 1.0 ± 0.05

Q: And the “ΔV0.5 (voltage dependence of inactivation)” value (Cav1.2/β3/α2δ; 0.2 μM)?
A: 1.7 ± 0.7 mV

Q: And the “ICa I/I0” value (Cav1.2/β3/α2δ; 0.2 μM)?
A: 0.9 ± 0.04

Q: And the Gmax/Gmax0 (Cav1.2/β3/α2δ; 0.7 μM)?
A: 1.1 ± 0.1

Q: And the “ΔV0.5 (voltage dependence of inactivation)” value (Cav1.2/β3/α2δ; 0.7 μM)?
A: 1.6 ± 0.8 mV

Q: And the “ICa I/I0” value (Cav1.2/β3/α2δ; 0.7 μM)?
A: 1.0 ± 0.03

Q: What about the Gmax/Gmax0 (Cav1.2/β3/α2δ; 2 μM) of the same compound?
A: 1.1 ± 0.07

Q: What about the “ΔV0.5 (voltage dependence of inactivation)” value (Cav1.2/β3/α2δ; 2 μM) of the same compound?
A: 1.7 ± 1.0 mV

Q: What about the “ICa I/I0” value (Cav1.2/β3/α2δ; 2 μM) of the same compound?
A: 1.0 ± 0.03

Q: What about the Gmax/Gmax0 (Cav1.2/β3/α2δ; 7 μM) of the same compound?
A: 1.1 ± 0.1

Q: What about the “ΔV0.5 (voltage dependence of inactivation)” value (Cav1.2/β3/α2δ; 7 μM) of the same compound?
A: 0.2 ± 0.8 mV

Q: What about the Gmax/Gmax0 (Cav1.2/β3/α2δ; 20 μM) of the same compound?
A: 0.8 ± 0.1

Q: What about the “ΔV0.5 (voltage dependence of inactivation)” value (Cav1.2/β3/α2δ; 20 μM) of the same compound?
A: -3.8 ± 0.9 mV

Q: And the “ICa I/I0” value (Cav1.2/β3/α2δ; 20 μM)?
A: 0.7 ± 0.1

Q: And the “Fitted slope factor of conductance vs voltage relationship” value (Kv7.1/KCNE1; 0.2 μM)?
A: 18.7 ± 1.1 mV

Q: And the Gmax/Gmax0 (Kv7.1/KCNE1; 0.2 μM)?
A: 1.1 ± 0.04

Q: What about the “ΔV0.5 (voltage dependence of activation)” value (Kv7.1/KCNE1; 0.2 μM) of the same compound?
A: -1.5 ± 0.4 mV

Q: What about the “IKs I/I0” value (Kv7.1/KCNE1; 0.2 μM) of the same compound?
A: 1.1 ± 0.03

Q: And the “Fitted slope factor of conductance vs voltage relationship” value (Kv7.1/KCNE1; 0.7 μM)?
A: 18.6 ± 1.2 mV

Q: And the Gmax/Gmax0 (Kv7.1/KCNE1; 0.7 μM)?
A: 1.3 ± 0.1

Q: What about the “ΔV0.5 (voltage dependence of activation)” value (Kv7.1/KCNE1; 0.7 μM) of the same compound?
A: -5.0 ± 1.7 mV

Q: And the “IKs I/I0” value (Kv7.1/KCNE1; 0.7 μM)?
A: 1.4 ± 0.08

Q: And the “Fitted slope factor of conductance vs voltage relationship” value (Kv7.1/KCNE1; 2 μM)?
A: 18.6 ± 1.3 mV

Q: And the Gmax/Gmax0 (Kv7.1/KCNE1; 2 μM)?
A: 1.6 ± 0.2

Q: And the “ΔV0.5 (voltage dependence of activation)” value (Kv7.1/KCNE1; 2 μM)?
A: -17.5 ± 2.0 mV

Q: What about the “IKs I/I0” value (Kv7.1/KCNE1; 2 μM) of the same compound?
A: 2.9 ± 0.5

Q: And the “Fitted slope factor of conductance vs voltage relationship” value (Kv7.1/KCNE1; 7 μM)?
A: 18.1 ± 1.2 mV

Q: And the Gmax/Gmax0 (Kv7.1/KCNE1; 7 μM)?
A: 1.7 ± 0.1

Q: What about the “ΔV0.5 (voltage dependence of activation)” value (Kv7.1/KCNE1; 7 μM) of the same compound?
A: −45.3 ± 2.9 mV

Q: And the Gmax/Gmax0 (Kv7.1/KCNE1; 20 μM)?
A: 1.1 ± 0.9

Q: And the “ΔV0.5 (voltage dependence of activation)” value (Kv7.1/KCNE1; 20 μM)?
A: -70.5 ± 6.0 mV

Q: What about the “IKs I/I0” value (Kv7.1/KCNE1; 20 μM) of the same compound?
A: 3.1 ± 0.4

Q: What about the Gmax/Gmax0 (Nav1.5/β1; 0.2 μM) of the same compound?
A: 1.0 ± 0.01

Q: And the “ΔV0.5 (voltage dependence of inactivation)” value (Nav1.5/β1; 0.2 μM)?
A: -0.5 ± 0.3 mV

Q: And the “INa I/I0” value (Nav1.5/β1; 0.2 μM)?
A: 1.0 ± 0.03

Q: What about the Gmax/Gmax0 (Nav1.5/β1; 0.7 μM) of the same compound?
A: 0.9 ± 0.01

Q: And the “ΔV0.5 (voltage dependence of inactivation)” value (Nav1.5/β1; 0.7 μM)?
A: -2.6 ± 0.5 mV

Q: What about the “INa I/I0” value (Nav1.5/β1; 0.7 μM) of the same compound?
A: 1.0 ± 0.03

Q: What about the Gmax/Gmax0 (Nav1.5/β1; 2 μM) of the same compound?
A: 0.6 ± 0.03

Q: What about the “ΔV0.5 (voltage dependence of inactivation)” value (Nav1.5/β1; 2 μM) of the same compound?
A: -9.4 ± 1.6 mV

Q: And the “INa I/I0” value (Nav1.5/β1; 2 μM)?
A: 0.7 ± 0.04

Q: And the Gmax/Gmax0 (Nav1.5/β1; 7 μM)?
A: 0.1 ± 0.01

Q: What about the “ΔV0.5 (voltage dependence of inactivation)” value (Nav1.5/β1; 7 μM) of the same compound?
A: −28.5 ± 0.6 mV

Q: And the Gmax/Gmax0 (Nav1.5/β1; 20 μM)?
A: 0.04 ± 0.01

Q: What about the “ΔV0.5 (voltage dependence of inactivation)” value (Nav1.5/β1; 20 μM) of the same compound?
A: -63.2 ± 10.9 mV

Q: And the “INa I/I0” value (Nav1.5/β1; 20 μM)?
A: 0.1 ± 0.03
